Measurements published in patent US12331046B2, “CTPS1 inhibitors and uses thereof” (Nimbus Clotho, Inc., priority 2020, dated 2025).
pIC50: −log10 of the molar value.

What follows are compounds tested against human CTPS1 (Homo sapiens (Human), UniProt P17812) (assay: hCTPS1 biochemical assay (ADP-Glo)). Settings: hCTPS1 25 nM, ATP 120 uM, UTP 160 uM, GTP 60 uM, L-Glutamine 100 uM, 25 degrees C.
Chain of human CTPS1 (P17812 whole entry): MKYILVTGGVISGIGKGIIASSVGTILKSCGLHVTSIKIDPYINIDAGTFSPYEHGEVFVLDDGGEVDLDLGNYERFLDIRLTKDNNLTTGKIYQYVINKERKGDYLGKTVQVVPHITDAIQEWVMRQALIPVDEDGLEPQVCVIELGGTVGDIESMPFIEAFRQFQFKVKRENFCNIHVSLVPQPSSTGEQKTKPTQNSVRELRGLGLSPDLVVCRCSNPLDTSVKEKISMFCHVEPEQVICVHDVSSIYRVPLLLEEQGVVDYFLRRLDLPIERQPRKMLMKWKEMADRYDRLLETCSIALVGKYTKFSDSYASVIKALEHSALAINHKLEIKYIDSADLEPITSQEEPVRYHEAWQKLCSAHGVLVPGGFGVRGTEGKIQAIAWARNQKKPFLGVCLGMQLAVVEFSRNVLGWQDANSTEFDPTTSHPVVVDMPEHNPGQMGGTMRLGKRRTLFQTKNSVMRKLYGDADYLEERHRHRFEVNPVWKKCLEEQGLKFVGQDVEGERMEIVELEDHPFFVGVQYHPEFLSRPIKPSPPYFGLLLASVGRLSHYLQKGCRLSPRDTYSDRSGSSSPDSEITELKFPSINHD

SMILES | pIC50
CCOc1cncc(-c2cnc(C(=O)N[C@@H](CC3CCN(C)CC3)c3cc(NS(=O)(=O)C4CC4)ccn3)s2)n1 [I-99, (S)—N-(1-(4-(cyclopropanesulfonamido)pyridin-2-yl)-2-(1-methylpiperidin-4-yl)ethyl)-5-(6-ethoxypyrazin-2-yl)thiazole-2-carboxamide] | > 7.00
CCOc1cncc(-c2cnc(C(=O)NC(c3cc(NS(=O)(=O)C4CC4)ccn3)C3CCNCC3)s2)n1 (centres unmarked) [I-153, N-((4-(cyclopropanesulfonamido)pyridin-2-yl)(piperidin-4-yl)methyl)-5-(6-ethoxypyrazin-2-yl)thiazole-2-carboxamide] | > 7.00
CCOc1cncc(-c2cnc(C(=O)N[C@@H](c3cc(NS(=O)(=O)C4CC4)ccn3)[C@H]3C[C@H](N(C)C)C3)s2)n1 (single isomer, unassigned) [I-107, N-((4-(cyclopropanesulfonamido)pyridin-2-yl)((1r, 3r)-3-(dimethylamino)cyclobutyl)methyl)-5-(6-ethoxypyrazin-2-yl)thiazole-2-carboxamide] | > 7.00
CCOc1cncc(-c2cnc(C(=O)NC3(c4cc(NS(=O)(=O)C5CC5)ccn4)CCOCC3)s2)n1 [I-132] | > 7.00
CC[C@@H](NC(=O)c1ncc(-c2cnn3ccc(Cl)cc23)s1)c1cc(NS(=O)(=O)C2CC2)ccn1 [I-151, (R)-5-(5-chloropyrazolo[1,5-a]pyridin-3-yl)-N-(1-(4-(cyclopropanesulfonamido)pyridin-2-yl)propyl)thiazole-2-carboxamide] | > 7.00
CCOc1cncc(-c2ccc(C(=O)NCc3cc(NS(=O)(=O)C4CC4)ccn3)c(=O)[nH]2)n1 [I-59] | 6.00 to 7.00
CCC(NC(=O)c1ncc(-c2cnn3ccc(Cl)cc23)s1)c1cc(NS(=O)(=O)C2CC2)ccn1 (centres unmarked) [I-174] | > 7.00
CCOc1cncc(-c2cnc(C(=O)N[C@@H](C[C@H]3CCCCN3)c3cc(NS(=O)(=O)C4CC4)ccn3)s2)n1 (single isomer, unassigned) [I-138] | > 7.00
O=C(NC1(c2csc(NS(=O)(=O)C3CC3)n2)CC1)c1ccc2c[n+]([O-])ccc2c1 [I-11, 6-(1-(2-(cyclopropanesulfonamido)thiazol-4-yl)cyclopropylcarbamoyl)isoquinoline 2-oxide] | ≤ 6.00
CCOc1cncc(-c2cnc(C(=O)N[C@@H](COC)c3cc(NS(=O)(=O)C4CC4)ccn3)s2)n1 [I-187] | > 7.00
CCOc1cncc(-c2ccc(C(=O)N3CCCC3c3ccnc(NS(=O)(=O)C4CC4)n3)nc2)n1 (stereo in doubt) [I-34, N-[4-[(2S)-1-[5-(6-ethoxypyrazin-2-yl)pyridine-2-carbonyl]pyrrolidin-2-yl]pyrimidin-2-yl]cyclopropanesulfonamide] | > 7.00

Now from value to compound:

pIC50 | SMILES
> 7.00 | O=C(NCc1cc(NS(=O)(=O)C2CC2)ccn1)c1ncc(-c2cncc(C(F)(F)F)n2)s1 [I-253]
> 7.00 | CCOc1cncc(-c2ccc(C(=O)NCc3nccc(NS(=O)(=O)C4CC4)c3OC)c(F)c2)n1 [I-257, N-[(4-cyclopropanesulfonamido-3-methoxypyridin-2-yl)methyl]-4-(6-ethoxypyrazin-2-yl)-2-fluorobenzamide]
> 7.00 | Cc1nc(C(=O)NCc2cc(NS(=O)(=O)C3CC3)ccn2)cnc1N1CCC12CCCCC2 [I-279]
> 7.00 | CCOc1cncc(-c2cnc(C(=O)NCc3cc(NS(=O)(=O)C4CC4)ccn3)s2)c1 [I-242, N-((4-(cyclopropanesulfonamido)pyridin-2-yl)methyl)-5-(5-ethoxypyridin-3-yl)thiazole-2-carboxamide]
> 7.00 | CCOc1cncc(-c2cnc(C(=O)N[C@H](CN3CC(F)C3)c3cc(NS(=O)(=O)C4CC4)ccn3)s2)n1 (single isomer, unassigned) [I-204]
> 7.00 | CCOc1cncc(-c2cnc(C(=O)N[C@H](CN3CCC3)c3cc(NS(=O)(=O)C4CC4)ccn3)s2)n1 (single isomer, unassigned) [I-222]
